According to paper PMC13070491, “Single-nucleus transcriptomics, pharmacokinetics, and pharmacodynamics of CDK4/6 and mTOR inhibition in a Phase 0/1 trial of recurrent high-grade glioma” (Neuro-Oncology, 2025):
Several values for one entry are separate records, joined by “and”; a condition that tells them apart may be missing. Equal values may be shown once.

Tests used:
[1] = Plasma pharmacokinetic parameters (LC-MS/MS); settings: for AUC(0-t): AUClast; for AUC(0-t) / Cmax / Tmax / AUClast / CL/F / T1/2: total everolimus plasma; for half-life: T1/2, total everolimus plasma
Experimental: Pharmacokinetic evaluation was conducted as previously described[8] using a validated liquid chromatography with tandem mass spectrometry (LC-MS/MS) method.[16] […] CSF samples were intraoperatively collected.

[2] = Adverse events related to study treatment (CTCAE); type: in vivo, human; settings: Dose Level 0: ribociclib 400mg + everolimus 2.5mg QD 5 days; CTCAE grade 1
Experimental: Eligibility was determined based on previous clinical records, panel DNA sequencing, and IHC of archival tissue from a previous surgery (Figure 1, Supplementary Figure S2A).

[3] = human, plasma, oral, 2.5 mg, mean
[4] = human, plasma, oral, 2.5 mg, median
[5] = human, plasma, oral, 5 mg, mean
[6] = human, plasma, oral, 5 mg, median
[7] = human, plasma, oral, 10 mg, mean
[8] = human, plasma, oral, 10 mg, median
[9] = human, plasma, oral, 50 mg, mean
[10] = human, plasma, oral, 50 mg, median
[11] = human, plasma, oral, 60 mg, mean
[12] = human, plasma, oral, 60 mg, median
[13] = human, plasma, oral, 70 mg, individual patients
[14] = human, plasma, oral, 70 mg, mean
[15] = human, plasma, oral, 70 mg, median
[16] = dose 2.5 mg, individual patients
[17] = dose 10 mg, individual patients
[18] = dose 50 mg, individual patients, listed as everolimus
[19] = dose 60 mg, individual patients
[20] = dose 70 mg, individual patients

## CO[C@H]1C[C@@H]2CC[C@@H](C)[C@@](O)(O2)C(=O)C(=O)N2CCCC[C@H]2C(=O)O[C@H]([C@H](C)C[C@@H]2CC[C@@H](OCCO)[C@H](OC)C2)CC(=O)[C@H](C)/C=C(\C)[C@@H](O)[C@@H](OC)C(=O)[C@H](C)C[C@H](C)/C=C/C=C/C=C/1C [Everolimus, everolimus]
[1]; [3]
  AUC(0-t): 0.31 µM·h
  half-life: 21.6 h
[1]; [4]
  AUC(0-t): 0.23 µM·h
  half-life: 17.2 h
[1]; human, plasma, oral, 2.5 mg, Cmax, mean
  Cmax: 33.7 nM
[1]; human, plasma, oral, 2.5 mg, Tmax, mean
  Tmax: 1.86 h
[1]; human, plasma, oral, 5 mg, individual patients
  AUC(0-t): 0.55 µM·h
[1]; [5]
  AUC(0-t): 0.43 µM·h
  half-life: 19.9 h
[1]; [6]
  AUC(0-t): 0.5 µM·h
  half-life: 18.8 h
[1]; human, plasma, oral, 5 mg, Cmax, mean
  Cmax: 34.1 nM
[1]; human, plasma, oral, 5 mg, Tmax, mean
  Tmax: 2.69 h
[1]; human, plasma, oral, 5 mg, Tmax, median
  Tmax: 2.03 h
[1]; [7]
  AUC(0-t): 0.9 µM·h
  half-life: 21.8 h
[1]; [8]
  AUC(0-t): 0.82 µM·h
  half-life: 21.8 h
[1]; human, plasma, oral, 10 mg, Cmax, individual patients
  Cmax: 80 nM
[1]; human, plasma, oral, 10 mg, individual patients
  half-life: 22.1 h
[1]; human, plasma, oral, 10 mg, Tmax, mean
  Tmax: 3.23 h
[1]; human, plasma, oral, 10 mg, Tmax, median
  Tmax: 3.92 h
[1]; human, plasma, oral, 50 mg, individual patients
  AUC(0-t): 1.35 µM·h
[1]; [9]
  AUC(0-t): 1.59 µM·h
  half-life: 29.3 h
[1]; [10]
  AUC(0-t): 1.61 µM·h
  half-life: 21.3 h
[1]; human, plasma, oral, 50 mg, Cmax, individual patients
  Cmax: 110 nM
[1]; human, plasma, oral, 50 mg, Cmax, mean
  Cmax: 140 nM
[1]; human, plasma, oral, 50 mg, Cmax, median
  Cmax: 130 nM
[1]; human, plasma, oral, 50 mg, Tmax, mean
  Tmax: 1.31 h
[1]; human, plasma, oral, 50 mg, Tmax, median
  Tmax: 1.12 h
[1]; human, plasma, oral, 60 mg, individual patients
  AUC(0-t): 1.93 µM·h
[1]; [11]
  AUC(0-t): 1.88 µM·h
  half-life: 19.7 h
[1]; [12]
  AUC(0-t): 1.88 µM·h
  half-life: 19.7 h
[1]; human, plasma, oral, 60 mg, Cmax, individual patients
  Cmax: 190 nM
[1]; human, plasma, oral, 60 mg, Cmax, mean
  Cmax: 190 nM
[1]; human, plasma, oral, 60 mg, Cmax, median
  Cmax: 190 nM
[1]; [13]
  AUC(0-t): 1.24 µM·h
  half-life: 18.7 h
[1]; [14]
  AUC(0-t): 1.29 µM·h
  half-life: 19.4 h
[1]; [15]
  AUC(0-t): 1.27 µM·h
  half-life: 19.4 h
[1]; human, plasma, oral, 70 mg, Cmax, individual patients
  Cmax: 120 nM
[1]; human, plasma, oral, 70 mg, Cmax, mean
  Cmax: 120 nM
[1]; human, plasma, oral, 70 mg, Cmax, median
  Cmax: 120 nM
[1]; human, plasma, oral, 70 mg, Tmax, mean
  Tmax: 4.25 h
[1]; human, plasma, oral, 70 mg, Tmax, median
  Tmax: 1.93 h
[1]; [16]
  AUClast: 0.41 µM·h and 0.68 µM·h and 0.46 µM·h and 0.32 µM·h and 0.19 µM·h and 0.16 µM·h and 0.14 µM·h
  CL/F: 6.33 L/h and 3.85 L/h and 5.73 L/h and 8.25 L/h and 11.50 L/h and 13.68 L/h and 16.29 L/h and 18.14 L/h and 15.94 L/h
  Tmax: 0.93 h and 1.00 h and 1.88 h and 2.05 h and 1.05 h and 3.97 h and 1.92 h and 1.95 h and 2.02 h
[1]; dose 2.5 mg, mean
  CL/F: 11.08 L/h
[1]; dose 2.5 mg, median
  CL/F: 11.50 L/h
  Cmax: 30 nM
  Tmax: 1.92 h
[1]; dose 5 mg, individual patients
  AUClast: 0.22 µM·h
  CL/F: 9.45 L/h and 23.36 L/h and 10.39 L/h
  Cmax: 45.2 nM and 21.1 nM
  T1/2: 28.35 h and 18.84 h and 12.56 h
  Tmax: 1.95 h and 4.10 h
[1]; dose 5 mg, mean
  CL/F: 14.40 L/h
[1]; dose 5 mg, median
  CL/F: 10.39 L/h
  Cmax: 36.2 nM
[1]; [17]
  AUClast: 0.49 µM·h and 0.63 µM·h and 1.02 µM·h and 1.48 µM·h
  CL/F: 21.35 L/h and 16.51 L/h and 10.28 L/h and 7.07 L/h
  Cmax: 120 nM
  T1/2: 21.52 h
  Tmax: 4.03 h and 1.05 h and 3.83 h and 4.00 h
[1]; dose 10 mg, mean
  CL/F: 13.80 L/h
  Cmax: 90 nM
[1]; dose 10 mg, median
  CL/F: 13.40 L/h
  Cmax: 84.6 nM
[1]; dose 50 mg, individual patients
  Cmax: 130 nM
[1]; [18]
  AUClast: 1.87 µM·h and 1.42 µM·h and 1.72 µM·h
  CL/F: 21.38 L/h and 14.80 L/h and 15.39 L/h and 21.73 L/h and 8.55 L/h
  Cmax: 130 nM and 160 nM and 170 nM
  Tmax: 1.87 h and 1.78 h and 0.83 h and 0.95 h
[1]; dose 50 mg, mean
  CL/F: 16.37 L/h
[1]; dose 50 mg, median
  CL/F: 15.39 L/h
[1]; [19]
  AUClast: 1.83 µM·h
  CL/F: 23.69 L/h and 16.85 L/h
  T1/2: 12.25 h and 27.10 h
  Tmax: 1.00 h
[1]; dose 60 mg, mean
  CL/F: 20.27 L/h
  Tmax: 1.00 h
[1]; dose 60 mg, median
  CL/F: 20.27 L/h
  Tmax: 1.00 h
[1]; [20]
  AUClast: 1.36 µM·h
  CL/F: 35.41 L/h and 33.84 L/h
  Cmax: 90 nM
  T1/2: 20.18 h
  Tmax: 9.75 h and 1.07 h
[1]; dose 70 mg, mean
  CL/F: 34.62 L/h
[1]; dose 70 mg, median
  CL/F: 34.62 L/h
[2]
  Stomatitis, No. Patients Affected: 1
